Series [1] is described as follows: Cytotoxicity / antiproliferative activity, crystal violet viability assay. The settings on record: human, HCT-116 colon carcinoma cells; HCT-116 cells, 3 days incubation, crystal violet absorbance at 590 nm relative to DMSO control, triplicate; read-out: IC50 (cytotoxicity against HCT-116). The format is cell-based, human. Here is the method: (§1) Because known indolotryptolines are potent human cell line toxins, lazarimide C, novel compounds 6 and 7, as well as cladoniamide A as a control, were tested for cytotoxicity against HCT-116 human colon carcinoma cancer cells.
(§2) The compounds were tested for antiproliferative activity in triplicate using the colon carcinoma cell line HCT-116 (ATCC; CCL-247) [See Brattain et al., “Heterogeneity of malignant cells from a human colonic carcinoma.” Cancer Res. 41(5):1751-1756(1981), incorporated herein by reference in its entirety]. For assays, frozen HCT-116 cells were thawed and grown in McCoy's 5A Modified Medium (Gibco) supplemented with 10% (v/v) FBS. Cells were sub-cultured once, and then cells in log phase growth were harvested by trypsinization. Trypsinized cells were seeded into 96-well plates (1,000 cells/well) and incubated overnight at 37° C. in the presence of 5% CO2. Compounds 6, 7, lazarimide C and cladoniamide (10 mg/mL in DMSO) were sequentially diluted in culture media (2-fold dilution starting at 50 μg/mL) across a 96-well plate and 100 μL was transferred to the appropriate well in an assay plate. The plates were incubated at 37° C. for 3 days and then evaluated for viability using a crystal violet-based colorimetric assay [See Zivadinovic et al., “Membrane estrogen receptor-alpha levels in MCF-7 breast cancer cells predict cAMP and proliferation responses.” Breast Cancer Res. 7(1):R101-112 (2005)]. Cell viability was recorded based on the absorbance at 590 nm in compound treated well relative to DMSO control wells.

In series [2] the test system is HCT-116 human colon carcinoma cancer cells. The series is described as above. The format is cell-based. The following applies: HCT-116 cells, 3 days incubation, crystal violet absorbance at 590 nm relative to DMSO control, triplicate; read-out: IC50 (cytotoxicity against HCT-116). Here is the method:
as §1, §2

By IC50 is commonly meant the concentration that inhibits the measured activity by half. Consider `COc1c2n(c3cc(Cl)ccc13)[C@]1(O)C(=O)N(C)C(=O)[C@]1(O)c1c-2[nH]c2ccc(Cl)cc12` [Compound 6, lazarimide B], for which, in series [1], the IC50 at 3 days was 0.0116 µM.
For `COc1c2n(c3ccccc13)[C@]1(O)C(=O)N(C)C(=O)[C@]1(O)c1c-2[nH]c2ccc(Cl)cc12` [cladoniamide A, reference compound], in series [2], the IC50 turned out to be 0.0404 µM.
In the case of `COc1c2n(c3cc(Cl)c(O)cc13)[C@]1(O)C(=O)N(C)C(=O)[C@]1(O)c1c-2[nH]c2ccc(Cl)cc12` [Compound 7, lazarimide A], the IC50 at 3 days in series [1] was 0.0084 µM.
As for `CN1C(=O)[C@@]2(O)c3c([nH]c4cc(Cl)ccc34)-c3[nH]c4ccc(Cl)cc4c3[C@@]2(O)C1=O` [lazarimide C], in series [1], the IC50 at 3 days was 25.8 µM.

(Values after patent US20180193321A1, “INDOLO[…]” (The Rockefeller University, priority 2015, published 2018).)
